Results from patent US11724999B2, “Inhibitors of RAS-effector protein interactions” (Oxford University Innovation Limited, priority 2018, dated 2023).

molecular target: T1, GST-human KRas166 (G12V) GPPNHP (Homo sapiens, UniProt P01116, G12V); assay: KRas small-molecule screening by SPR (BIACORE T200); format: binding; conditions: compound at final concentration of 100 uM; immobilised GST-KRAS166 (G12V) GPPNHP, GST reference channel
T1 construct: made in house; host or cells: E. coli C41(DE3)
Procedure: For SPR assays pGEX-KRAS(G12V) plasmid was transformed into E. coli C41(DE3). Bacterial cells were cultured at 37° C. to an OD600 of 0.6 and induced with IPTG (final 0.1 mM) at 18° C. overnight. The GST fusion proteins were extracted from bacteria pellets after cell disruption in 140 mM NaCl, 2.7 mM KCl, […], 1.8 mM KH2PO4, 1 mM EDTA, 2 mM MgCl2 pH 7.4 and purified by glutathione-sepharose column chromatography (GE Healthcare), eluting with 50 mM Tris-HCl pH8.0, 10 mM reduced glutathione, 1 mM DTT, 2 mM MgC2. The eluted proteins were dialysed against 50 mM Tris-HCl pH8.0, 1 mM DTT, 2 mM MgCl2 and concentrated to 10 mg/ml using a Biomax-30 […]-15 centrifugal filter device (Millipore). Purified KRAS protein was loaded with GPPNHP as described elsewhere (Pacold et al., 2000). Loaded protein was then purified by gel filtration on a HiLoad Superdex-75 HR column (GE Healthcare) in 1×PBS pH7.4, 5 mM MgCl2 and concentrated for storage.
To a previously immobilized CM5 chip (GE Healthcare BR-1005-30) with anti GST antibody via amine coupling method, GST in channel 1 and GST-human KRas166 (G12V) GPPNHP in channel 2 were immobilised. GST was immobilised between 2,000 and 5,000 Response units. KRAS166 (G12V) was immobilized between 10,000 to 15,000 Response Units.
In a 96 well plate, compounds were diluted in […], 5 mM MgCl2 and 5% DMSO Buffer to a final concentration of 100 uM. DCAI was used as positive control. Experiment also included a solvent correction curve for 5% DMSO. Screening and evaluation of the protein immobilization and the compounds screening was done accordingly to the BIACORE T200 control and evaluation software.
Protein immobilisation: 10,000 RU; average fragment 300 Da in size. Rmax=(MWA/MWL)×RL×SM MWA is the molecular weight of the analyte in Da MWL is the molecular weight of the ligand in Da RL is the immobilization level in RU SM is the molar stoichiometry (assume 1:1) Rmax=300/47,500×10,000×1 Rmax=63 RU. Cell Viability Assay protocols

SPR Response Units | SMILES
25 Response Units | O=C(NC[C@@H]1COc2ccc(OCc3ccccc3)cc2O1)C1CCOCC1 [Example 5, Tetrahydro-pyran-4-carboxylic acid ((R)-7-benzyloxy-2,3-dihydro-benzo[1,4]dioxin-2-ylmethyl)-amide]
21 Response Units | CN(C)CCC(=O)NC[C@@H]1COc2ccc(OCc3ccccc3)cc2O1 [Example 6, N-((R)-7-Benzyloxy-2,3-dihydro-benzo[1,4]dioxin-2-ylmethyl)-3-dimethylamino-propionamide]
24 Response Units | CN1CCC(CC(=O)NC[C@@H]2COc3ccc(OCc4ccccc4)cc3O2)CC1 [Example 8, N-((R)-7-Benzyloxy-2,3-dihydro-benzo[1,4]dioxin-2-ylmethyl)-2-(1-methyl-piperidin-4-yl)-acetamide]
68 Response Units | O=C(Cc1cccnc1)NC[C@@H]1COc2ccc(OCc3ccccc3)cc2O1 [Example 11, N-((R)-7-Benzyloxy-2,3-dihydro-benzo[1,4]dioxin-2-ylmethyl)-2-pyridin-3-yl-acetamide]
53 Response Units | Cc1n[nH]c(C)c1CC(=O)NC[C@@H]1COc2ccc(OCc3ccccc3)cc2O1 [Example 12, N-((R)-7-Benzyloxy-2,3-dihydro-benzo[1,4]dioxin-2-ylmethyl)-2-(3,5-dimethyl-1H-pyrazol-4-yl)-acetamide]
24 Response Units | NC(=O)CN1CCC(C(=O)NC[C@@H]2COc3ccc(OCc4ccccc4)cc3O2)CC1 [Example 14, 1-Carbamoylmethyl-piperidine-4-carboxylic acid ((R)-7-benzyloxy-2,3-dihydro-benzo[1,4]dioxin-2-ylmethyl)-amide]
33 Response Units | O=C(NC[C@@H]1COc2ccc(OCc3ccccc3)cc2O1)C1CCN(Cc2ccco2)CC1 [Example 15, 1-Furan-2-ylmethyl-piperidine-4-carboxylic acid ((R)-7-benzyloxy-2,3-dihydro-benzo[1,4]dioxin-2-ylmethyl)-amide]
25 Response Units | O=C(CC1CCNCC1)NC[C@@H]1COc2ccc(OCc3ccccc3)cc2O1 [Example 16, N-((R)-7-Benzyloxy-2,3-dihydro-benzo[1,4]dioxin-2-ylmethyl)-2-piperidin-4-yl-acetamide]
22 Response Units | O=C(NC[C@@H]1COc2ccc(OCc3ccccc3)cc2O1)C1CCNCC1 [Example 17, Piperidine-4-carboxylic acid ((R)-7-benzyloxy-2,3-dihydro-benzo[1,4]dioxin-2-ylmethyl)-amide]
9 Response Units | CN1CCC(COc2ccc3c(c2)O[C@H](CNC(=O)c2ncco2)CO3)CC1 [Example 21, Oxazole-2-carboxylic acid [(R)-7-(1-methyl-piperidin-4-ylmethoxy)-2,3-dihydro-benzo[1,4]dioxin-2-ylmethyl]-amide]
23 Response Units | CC(=O)N1CCC(NC[C@@H]2COc3ccc(OCc4ccccc4)cc3O2)CC1 [Example 34, 1-{4-[((R)-7-Benzyloxy-2,3-dihydro-benzo[1,4]dioxin-2-ylmethyl)-amino]-piperidin-1-yl}-ethanone]
24 Response Units | c1ccc(COc2ccc3c(c2)O[C@H](CNC2CCc4ccccc42)CO3)cc1 (stereo partly drawn) [Example 48, ((R)-7-Benzyloxy-2,3-dihydro-benzo[1,4]dioxin-2-ylmethyl)-indan-1-yl-amine]
29 Response Units | c1ccc(COc2ccc3c(c2)O[C@H](CNCC2COCCN2)CO3)cc1 (stereo partly drawn) [Example 57, ((R)-7-Benzyloxy-2,3-dihydro-benzo[1,4]dioxin-2-ylmethyl)-morpholin-3-ylmethyl-amine]
36 Response Units | O=C(C1COc2ccc(OCc3ccccc3)cc2O1)N1CCN(CC2CCOCC2)CC1 (centres unmarked) [Example 64, (7-Benzyloxy-2,3-dihydro-benzo[1,4]dioxin-2-yl)-[4-(tetrahydro-pyran-4-ylmethyl)-piperazin-1-yl]-methanone]
7 Response Units | O=C1CC(CNC(=O)C2COc3ccc(OCc4ccccc4)cc3O2)CCN1 (centres unmarked) [Example 71, 7-Benzyloxy-2,3-dihydro-benzo[1,4]dioxine-2-carboxylic acid (2-oxo-piperidin-4-ylmethyl)-amide]
51 Response Units | N[C@H]1CC[C@@H](NC(=O)C2COc3ccc(OCc4ccccc4)cc3O2)CC1 (some centres unmarked) [Example 75, 7-Benzyloxy-2,3-dihydro-benzo[1,4]dioxine-2-carboxylic acid (4-amino-cyclohexyl)-amide]
48 Response Units | O=C(NCC1COCCN1)C1COc2ccc(OCc3ccccc3)cc2O1 (centres unmarked) [Example 76, 7-Benzyloxy-2,3-dihydro-benzo[1,4]dioxine-2-carboxylic acid (morpholin-3-ylmethyl)-amide]

More lines, now with the values behind:

SMILES | SPR Response Units
O=C(NC[C@@H]1COc2ccc(OCc3cccnc3)cc2O1)c1ncco1 [Example 19, Oxazole-2-carboxylic acid [(R)-7-(pyridin-3-ylmethoxy)-2,3-dihydro-benzo[1,4]dioxin-2-ylmethyl]-amide] | 40 Response Units
O=C(NC[C@@H]1COc2ccc(OCc3cn[nH]c3)cc2O1)c1ncco1 [Example 20, Oxazole-2-carboxylic acid [(R)-7-(1H-pyrazol-4-ylmethoxy)-2,3-dihydro-benzo[1,4]dioxin-2-ylmethyl]-amide] | 40 Response Units
CN1CCN(Cc2ccc(C(=O)NC[C@@H]3COc4ccc(OCc5cncc(Cl)c5)cc4O3)o2)CC1 [Example 25, 5-(4-Methyl-piperazin-1-ylmethyl)-furan-2-carboxylic acid [(R)-7-(5-chloro-pyridin-3-ylmethoxy)-2,3-dihydro-benzo[1,4]dioxin-2-ylmethyl]-amide] | 45 Response Units
CN1CCN(Cc2ccc(C(=O)NC[C@@H]3COc4ccc(OCc5ccc(Cl)cn5)cc4O3)o2)CC1 [Example 26, 5-(4-Methyl-piperazin-1-ylmethyl)-furan-2-carboxylic acid [(R)-7-(5-chloro-pyridin-2-ylmethoxy)-2,3-dihydro-benzo[1,4]dioxin-2-ylmethyl]-amide] | 48 Response Units
CNC(=O)C(NC[C@@H]1COc2ccc(OCc3ccccc3)cc2O1)c1ccccc1 (stereo partly drawn) [Example 49, 2-[((R)-7-Benzyloxy-2,3-dihydro-benzo[1,4]dioxin-2-ylmethyl)-amino]-N-methyl-2-phenyl-acetamide] | 67 Response Units
O=C(C1COc2ccc(OCc3ccccc3)cc2O1)N1CCN(Cc2ccncc2)CC1 (centres unmarked) [Example 63, (7-Benzyloxy-2,3-dihydro-benzo[1,4]dioxin-2-yl)-(4-pyridin-4-ylmethyl-piperazin-1-yl)-methanone] | 79 Response Units
O=C(NCc1ccc(CN2CCOCC2)cc1)C1COc2ccc(OCc3ccccc3)cc2O1 (centres unmarked) [Example 65, 7-Benzyloxy-2,3-dihydro-benzo[1,4]dioxine-2-carboxylic acid 4-morpholin-4-ylmethyl-benzylamide] | 46 Response Units
O=C(NCc1cccc(CN2CCOCC2)c1)C1COc2ccc(OCc3ccccc3)cc2O1 (centres unmarked) [Example 66, 7-Benzyloxy-2,3-dihydro-benzo[1,4]dioxine-2-carboxylic acid 3-morpholin-4-ylmethyl-benzylamide] | 53 Response Units
O=C(NCc1cccnc1)C1COc2ccc(OCc3ccccc3)cc2O1 (centres unmarked) [Example 67, 7-Benzyloxy-2,3-dihydro-benzo[1,4]dioxine-2-carboxylic acid (pyridin-3-ylmethyl)-amide] | 49 Response Units
O=C(NCc1ccncc1)C1COc2ccc(OCc3ccccc3)cc2O1 (centres unmarked) [Example 68, 7-Benzyloxy-2,3-dihydro-benzo[1,4]dioxine-2-carboxylic acid (pyridin-4-ylmethyl)-amide] | 57 Response Units
O=C(NCc1ccnc(F)c1)C1COc2ccc(OCc3ccccc3)cc2O1 (centres unmarked) [Example 72, 7-Benzyloxy-2,3-dihydro-benzo[1,4]dioxine-2-carboxylic acid (2-fluoro-pyridin-4-ylmethyl)-amide] | 12 Response Units
O=C(NCc1cn[nH]c1)C1COc2ccc(OCc3ccccc3)cc2O1 (centres unmarked) [Example 73, 7-Benzyloxy-2,3-dihydro-benzo[1,4]dioxine-2-carboxylic acid (1H-pyrazol-4-ylmethyl)-amide] | 33 Response Units
